# Reference: ChEMBL document CHEMBL1141566, “Synthesis and antitumor evaluation of bis aza-anthracene-9,10-diones and bis aza-anthrapyrazole-6-ones” (2008)
# How the values were obtained:
# HT-29 [1] = assay: Cytotoxicity against human HT29 cells after 72 hrs; type: functional; details: HT-29, 72 h
# [2] = Ratio of Kapp for synthetic poly(dA-dT)]2 oligonucleotide to Kapp for synthetic poly(dG-dC)]2 oligonucleotide
# HT-29 [3] = assay: Effect on apoptosis in human HT29 PI-/AnnV- cells after 24 hrs by biparametric flow cytometric analysis; type: functional; details: HT-29, 24 h, read-out: LC50 (the source's name)
# HT-29 [4] = assay: Effect on apoptosis in human HT29 PI-/AnnV- cells after 6 hrs by biparametric flow cytometric analysis; type: functional; details: HT-29, 6 h, read-out: LC50 (the source's name)
# HT-29 [5] = assay: Effect on apoptosis in human HT29 PI-/AnnV+ cells after 12 hrs by biparametric flow cytometric analysis; type: functional; details: HT-29, 12 h, read-out: LC50 (the source's name)
# HT-29 [6] = assay: Effect on apoptosis in human HT29 PI-/AnnV+ cells after 24 hrs by biparametric flow cytometric analysis; type: functional; details: HT-29, 24 h, read-out: LC50 (the source's name)
# HT-29 [7] = assay: Effect on apoptosis in human HT29 PI+/AnnV+ cells after 12 hrs by biparametric flow cytometric analysis; type: functional; details: HT-29, 12 h, read-out: LC50 (the source's name)
# HT-29 [8] = assay: Effect on apoptosis in human HT29 PI-/AnnV+ cells after 6 hrs by biparametric flow cytometric analysis; type: functional; details: HT-29, 6 h, read-out: LC50 (the source's name)
# HT-29 [9] = assay: Effect on apoptosis in human HT29 PI+/AnnV+ cells after 24 hrs by biparametric flow cytometric analysis; type: functional; details: HT-29, 24 h, read-out: LC50 (the source's name)
# HT-29 [10] = assay: Effect on apoptosis in human HT29 PI+/AnnV- cells after 6 hrs by biparametric flow cytometric analysis; type: functional; details: HT-29, 6 h, read-out: LC50 (the source's name)
# HT-29 [11] = assay: Effect on apoptosis in human HT29 PI+/AnnV+ cells after 6 hrs by biparametric flow cytometric analysis; type: functional; details: HT-29, 6 h, read-out: LC50 (the source's name)
# HT-29 [12] = assay: Effect on apoptosis in human HT29 PI+/AnnV- cells after 12 hrs by biparametric flow cytometric analysis; type: functional; details: HT-29, 12 h, read-out: LC50 (the source's name)
# HT-29 [13] = assay: Effect on apoptosis in human HT29 PI+/AnnV- cells after 24 hrs by biparametric flow cytometric analysis; type: functional; details: HT-29, 24 h, read-out: LC50 (the source's name)
# HT-29 [14] = assay: Effect on apoptosis in human HT29 PI-/AnnV- cells after 12 hrs by biparametric flow cytometric analysis; type: functional; details: HT-29, 12 h, read-out: LC50 (the source's name)
Structure (SMILES),GI50 (HT-29 [1]),LC50 (concentration killing 50% of cells) (HT-29 [1]),TGI (HT-29 [1]),Ratio [2],other results
CN(C)CCn1nc2c3c(c(NCCCN(C)CCCNc4ccc5c6c(nn5CCN(C)C)-c5ccncc5C(=O)c46)ccc31)C(=O)c1cnccc1-2,0.7 µM,> 100 µM,> 100 µM,,
CN(C)CCNc1ccc(NCCCN(C)CCCNc2ccc(NCCN(C)C)c3c2C(=O)c2ccncc2C3=O)c2c1C(=O)c1cnccc1C2=O,> 100 µM,,,7.7,
CCN(CC)CCn1nc2c3c(c(NCCCN(C)CCCNc4ccc5c6c(nn5CCN(CC)CC)-c5ccncc5C(=O)c46)ccc31)C(=O)c1cnccc1-2,0.4 µM,> 100 µM,> 100 µM,,
CN(C)CCCNc1ccc(NCCCN(C)CCCNc2ccc(NCCCN(C)C)c3c2C(=O)c2cnccc2C3=O)c2c1C(=O)c1ccncc1C2=O,2 µM,> 100 µM,7.9 µM,2.4,
CCN(CC)CCNc1ccc(NCCCN(C)CCCNc2ccc(NCCN(CC)CC)c3c2C(=O)c2ccncc2C3=O)c2c1C(=O)c1cnccc1C2=O,> 100 µM,,,5,
CCN(CC)CCCNc1ccc(NCCCN(C)CCCNc2ccc(NCCCN(CC)CC)c3c2C(=O)c2cnccc2C3=O)c2c1C(=O)c1ccncc1C2=O,83 µM,> 100 µM,> 100 µM,1.7,
CN(CCCNc1ccc(NCCN2CCCC2)c2c1C(=O)c1cnccc1C2=O)CCCNc1ccc(NCCN2CCCC2)c2c1C(=O)c1cnccc1C2=O,0.5 µM,> 100 µM,7.9 µM,2.4,
CCN(CC)CCn1nc2c3c(c(NCCCN(C)CCCNc4ccc5c6c(nn5CCN(CC)CC)-c5cnccc5C(=O)c46)ccc31)C(=O)c1ccncc1-2,0.001 µM,97 µM,4.5 µM,,
CN(C)CCCn1nc2c3c(c(NCCCN(C)CCCNc4ccc5c6c(nn5CCCN(C)C)-c5cnccc5C(=O)c46)ccc31)C(=O)c1ccncc1-2,1.6 µM,> 100 µM,> 100 µM,,
CN(C)CCCNc1ccc(NCCCN(C)CCCNc2ccc(NCCCN(C)C)c3c2C(=O)c2ccncc2C3=O)c2c1C(=O)c1cnccc1C2=O,> 100 µM,,,1.9,
NCCNc1ccc(NCCN)c2c1C(=O)c1ccncc1C2=O [PIXANTRONE],0.0012 µM,,3.2 µM,,CC50 (HT-29 [3]): 41.6 µM; CC50 (HT-29 [4]): 60.4 µM; CC50 (HT-29 [5]): 38.4 µM; CC50 (HT-29 [6]): 41 µM; CC50 (HT-29 [7]): 6.1 µM; CC50 (HT-29 [8]): 32.5 µM; CC50 (HT-29 [9]): 6.2 µM; CC50 (HT-29 [10]): 4.8 µM; CC50 (HT-29 [11]): 2.3 µM; CC50 (HT-29 [12]): 5.1 µM; CC50 (HT-29 [13]): 11.2 µM; CC50 (HT-29 [14]): 50.4 µM
CCN(CC)CCNc1ccc(NCCCN(C)CCCNc2ccc(NCCN(CC)CC)c3c2C(=O)c2cnccc2C3=O)c2c1C(=O)c1ccncc1C2=O,4.5 µM,> 100 µM,32 µM,3.5,
CN(C)CCCn1nc2c3c(c(NCCCN(C)CCCNc4ccc5c6c(nn5CCCN(C)C)-c5ccncc5C(=O)c46)ccc31)C(=O)c1cnccc1-2,40 µM,> 100 µM,> 100 µM,,
